Values of other authors, collected in patent US20210228408A1, “Glaucoma Treatment Via Intracameral Ocular Implants” (Allergan, Inc., priority 2015, published 2021).

Assays:
[1] = target: prostaglandin F (FP) receptor (Homo sapiens, UniProt P43088); settings: read-out: Most potent measured EC50 on FP receptor
[2] = target: Cloned Human Ciliary Body FP Prostaglandin Receptor (Homo sapiens, UniProt P43088); settings: read-out: Functional Potency, EC50
Chain of Cloned Human Ciliary Body FP Prostaglandin Receptor (P43088 whole entry): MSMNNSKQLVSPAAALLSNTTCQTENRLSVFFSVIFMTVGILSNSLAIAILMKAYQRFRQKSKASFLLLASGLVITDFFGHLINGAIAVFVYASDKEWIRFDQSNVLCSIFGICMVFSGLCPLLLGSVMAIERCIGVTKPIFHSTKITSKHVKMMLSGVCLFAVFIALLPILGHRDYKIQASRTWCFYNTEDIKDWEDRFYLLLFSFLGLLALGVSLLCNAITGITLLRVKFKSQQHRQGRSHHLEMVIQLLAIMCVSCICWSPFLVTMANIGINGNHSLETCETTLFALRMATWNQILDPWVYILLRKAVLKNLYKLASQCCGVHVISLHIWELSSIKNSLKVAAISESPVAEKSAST

Chain of prostaglandin F (FP) receptor (P43088 whole entry): as above

Row | Compound | EC50 [1] [nM] | EC50 [2] [nM]
1 | O=C(O)CCC/C=C\C[C@@H]1[C@@H](/C=C/[C@@H](O)COc2cccc(C(F)(F)F)c2)[C@H](O)C[C@@H]1O [Travoprost acid] | 1.4 | 3.2
2 | CC(C)OC(=O)CCC/C=C\C[C@@H]1[C@@H](/C=C/[C@@H](O)COc2cccc(C(F)(F)F)c2)[C@H](O)C[C@@H]1O [Travoprost, propan-2-yl 7-[3,5-dihydroxy-2-[3-hydroxy-4-[3-(trifluoromethyl)phenoxy]-but-1-enyl]-cyclopentyl]hept-5-enoate] | ~1.4 | –
3 | O=C(O)CCC/C=C\C[C@@H]1[C@@H](/C=C/[C@@H](O)CCc2ccccc2)[C@H](O)C[C@@H]1O [Bimatoprost acid] | ~3.3 | 5.8
